Source: patent US8283344B2, “Method of treating inherited severe neutropenia” (Merck & Co., Inc., priority 2007, dated 2012)

Key:
[1] = target: T1, neutrophil elastase (NE) (Homo sapiens, UniProt P08246, DEL174-181); assay: NE activity in cellular SCN model (tet-off HL-60 cells expressing del.145-152 mutant NE); assay type: cell-based; conditions: human promyelocytic tet-off HL-60 cells
T1 construct: The ratio of normal-to-mutant NE products is approximately 1:1; expressed in transfected cells; host or cells: human promyelocytic tet-off HL-60 cells
T1 sequence (P08246 with tags, fused parts or gaps DEL174-181): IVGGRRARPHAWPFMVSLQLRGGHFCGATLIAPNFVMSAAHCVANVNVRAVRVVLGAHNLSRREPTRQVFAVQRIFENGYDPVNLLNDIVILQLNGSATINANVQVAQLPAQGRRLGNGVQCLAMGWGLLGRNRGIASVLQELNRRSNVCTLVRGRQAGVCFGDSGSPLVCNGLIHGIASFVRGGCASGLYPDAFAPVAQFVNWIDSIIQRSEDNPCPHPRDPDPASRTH
T1 sequence (P08246 30-267): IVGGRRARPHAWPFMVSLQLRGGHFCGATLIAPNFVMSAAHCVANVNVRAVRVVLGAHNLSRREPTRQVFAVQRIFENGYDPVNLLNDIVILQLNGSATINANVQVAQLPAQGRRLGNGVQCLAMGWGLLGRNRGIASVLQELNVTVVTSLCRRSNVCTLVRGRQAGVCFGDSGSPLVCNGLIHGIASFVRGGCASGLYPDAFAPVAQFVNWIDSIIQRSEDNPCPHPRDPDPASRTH
Description: (§1) We have established a model of SCN with doxycycline-regulated expression of del.145-152 mutant NE in human promyelocytic tet-off HL-60 cells. The ratio of normal-to-mutant NE products is approximately 1:1, which is expected in SCN patients with heterozygous mutation. […] The reduced cell growth and accelerated apoptosis were also observed in response to mutNE expression. Thus, this cellular model of SCN appears to closely recapitulate the human phenotype.

[2] = test system: HL-60 cells expressing the del.145-152 mutNE; assay: Cell growth and myeloid differentiation of HL-60 cells expressing del.145-152 mutNE; assay type: cell-based, human; conditions: HL-60 cells expressing del.145-152 mutNE treated with compound
Description: as §1

[3] = test system: control cells expressing normal elastase; assay: Growth rate of control cells expressing normal elastase; assay type: cell-based, human; conditions: inhibition of NE activity
Description: as §1

[4] = target: T2, Human Polymorphonuclear Leukocyte Elastase (Homo sapiens, UniProt P08246); assay: Inhibition of human polymorphonuclear leukocyte elastase via hydrolysis of Boc-AAPAN or Boc-AAPVN; assay type: biochemical; conditions: second order rate constant for inactivation of the enzyme; crude human PMN extract, pH 7.5; to the nearest thousand; read-out: Kobs/[I]
T2 construct: Crude extract of human polymorphonuclear leukocytes (PMN) containing elastase activity; from tissue; host or cells: human polymorphonuclear leukocytes (crude extract)
T2 sequence (P08246 30-267): T1 sequence (P08246 30-267)
Protocol: Enzyme Assays for the Inhibition of Human Polymorphonuclear Leukocyte Elastase Via Hydrolysis of N-t-Boc-alanyl-alanyl-prolylalanine-p-nitroanilide (Boc-AAPAN) or N-t-Boc-alanyl-[…] (Boc-AAPVN) Reagent: • 0.05M TES (N-tris[hydroxymethyl]methyl-2-mino-ethanesulfonic acid) Buffer, pH 7.5. 0.2 mM Boc-AAPAN or Boc-AAPVN.
To prepare substrate, the solid was first dissolved in 10.0 ml DMSO. Buffer at pH 7.5 was then added to a final volume of 100 ml.
Crude extract of human polymorphonuclear leukocytes (PMN) containing elastase activity.
Inhibitors (azetidinones) to be tested dissolved in DMSO just before use.
To 1.0 ml of 0.2 mM Boc-AAPAN in a cuvette, 0.01-0.1 ml of DMSO with or without inhibitor was added. After mixing, a measurement was taken at 410 mµ to detect any spontaneous hydrolysis due to presence of test compound. 0.05 Milliliters of PMN extract was then added and the ΔOD/min at 410 mµ was measured and recorded. Beckman model 35 spectrophotometer was used.
Results were expressed to the nearest thousand k obs/I which is the second order rate constant in per mole per second for inactivation of the enzyme.
The elastase activity in the crude PMN extract may vary from one preparation to another. A control of each new batch is run, and the volume added in the assay procedure is adjusted according to activity.

Structure (SMILES)	kinact/KI [4]	also measured
CCC[C@@H](NC(=O)C1C(=O)C(CC)(CC)[C@@H]1Oc1ccc(C(=O)N2CCN(C)CC2)cc1)c1ccc(C)cc1 (stereo partly shown) [Compound 242]	1.7e+06 M⁻¹ s⁻¹	inhibition of the NE activity [1]: more than 80%; cell growth [2]: complete restoration of cell growth; myeloid differentiation [2]: increased myeloid differentiation; growth rate of control cells [3]: did not reduce the growth rate
CCC[C@@H](NC(=O)C1C(=O)C(CC)(CC)[C@@H]1Oc1ccc(C(=O)N2CCN(c3ccc(F)cc3)CC2)cc1)c1ccc(C)cc1 (stereo partly shown) [Compound 243]	7.49e+06 M⁻¹ s⁻¹	
CCC[C@@H](NC(=O)C1C(=O)C(CC)(CC)[C@@H]1Oc1ccc(C(=O)N2CCN(c3cccc(Cl)c3)CC2)cc1)c1ccc(C)cc1 (stereo partly shown) [Compound 244]	2.45e+06 M⁻¹ s⁻¹	
CCC[C@@H](NC(=O)C1C(=O)C(CC)(CC)[C@@H]1Oc1ccc(C(=O)N2CCN(c3ccccc3)CC2)cc1)c1ccc(C)cc1 (stereo partly shown) [Compound 245]	5.28e+06 M⁻¹ s⁻¹	
CCC[C@@H](NC(=O)C1C(=O)C(CC)(CC)[C@@H]1Oc1ccc(C(=O)N2CCN(Cc3ccccc3)CC2)cc1)c1ccc(C)cc1 (stereo partly shown) [Compound 246]	5.17e+06 M⁻¹ s⁻¹	
CCC[C@@H](NC(=O)C1C(=O)C(CC)(CC)[C@@H]1Oc1ccc(C(=O)N2CCNCC2)cc1)c1ccc(C)cc1 (stereo partly shown) [Compound 247]	1.1e+06 M⁻¹ s⁻¹	
CCC[C@@H](NC(=O)C1C(=O)C(CC)(CC)[C@@H]1Oc1ccc(C(=O)N2CCN(C(C)C)CC2)cc1)c1ccc(C)cc1 (stereo partly shown) [Compound 248]	2.39e+06 M⁻¹ s⁻¹	
CCC[C@@H](NC(=O)C1C(=O)C(CC)(CC)[C@@H]1Oc1ccc(C(=O)N2CCN(CC(C)C)CC2)cc1)c1ccc(C)cc1 (stereo partly shown) [Compound 249]	2.48e+06 M⁻¹ s⁻¹	
CCC[C@@H](NC(=O)C1C(=O)C(CC)(CC)[C@@H]1Oc1ccc(C(=O)N2CCN(CC)CC2)cc1)c1ccc(C)cc1 (stereo partly shown) [Compound 252]	2.32e+06 M⁻¹ s⁻¹	
CCC[C@@H](NC(=O)C1C(=O)C(CC)(CC)[C@@H]1Oc1ccc(C(=O)N2CCN(CCC)CC2)cc1)c1ccc(C)cc1 (stereo partly shown) [Compound 253]	1.77e+06 M⁻¹ s⁻¹	
CCC[C@@H](NC(=O)C1C(=O)C(CC)(CC)[C@@H]1Oc1ccc(C(=O)N2CCN(c3ncccn3)CC2)cc1)c1ccc(C)cc1 (stereo partly shown) [Compound 254]	2.14e+06 M⁻¹ s⁻¹	
CCC[C@@H](NC(=O)C1C(=O)C(CC)(CC)[C@@H]1Oc1ccc(C(=O)N2CCN(C3CC3)CC2)cc1)c1ccc(C)cc1 (stereo partly shown) [Compound 256]	3.59e+06 M⁻¹ s⁻¹	
